Laboratory results published in patent publication US20130039956A1, “USE OF NITROCARBOXYLIC ACIDS FOR THE TREATMENT, DIAGNOSIS AND PROPHYLAXIS OF AGGRESSIVE HEALING PATTERNS” (priority 2010, published 2013).

What was measured:
[1] = system: human umbellical endothelial cells (HUVEC); assay: Adhesion, propagation and growth of endothelial cells on coated polystyrene films; assay type: cell-based; details: days 3, 7, 14, compared with native FA; further: key: 0: not superior to native FA (control); +: Superior to native FA; ++: superior to both; +++: outstanding effect
Procedure: Polystyrene scaffolds were prepared and pretreated in the same manner as performed in example 1 by using the same nitrocarboxylic acids as listed in table 1. The film samples were placed in a culture dish containing a gel matrix, in which human umbellical endothelial cells (HUVEC) had been allowed to grow to confluence. The culture medium consisted of 5% FCS, which was replaced every 5 days. Cultivation was performed according to standard conditions. Films were evaluated at days 3, 7, and 14 after careful extraction from the culture dishes, rinsing with saline solution, and staining with methylene blue. Using a reflected light microscope, the films were immediately examined to evaluate the following: Propagation of cells to the film center, cell confluidity, multilayer formation, and cell shape.

[2] = system: canine cutaneous mastocytoma cells; assay: Toxin response of mast cells (mastoparan, Streptolysin O, UVB); assay type: cell-based; details: preincubation 10 and 100 μmol, compared with native FA
Procedure: In order to determine membrane stabilizing and anticytotoxic properties of nitrated fatty acids, an in vitro model utilizing canine cutaneous mastocytoma cells was chosen. Cells were cultured according to standard procedure. Cytotoxic effects were quantified by measuring not only by Ca^2+ influx, histamine, and TNFα release, but also by using the MTT assay. Cell suspensions were incubated with 0.9% saline, one of the nitrocarboxylic acids as listed in table 1 or the respective native fatty acid as to achieve a final concentration of 10 and 100 μmol which was given to the medium 15 min before toxin application.
Mastoparan suspended in a buffer solution was added to the preincubated mast cell suspensions to achieve a final concentration of 10 or 30 μmol, respectively. Measurements were performed after 1 hour incubation time. […] Preincubation of mast cells with nitrated fatty acids reduced the effects on Ca^2+ influx, histamine release, and apoptosis induction in a dose-dependent manner, with an almost complete absence of apoptosis at a concentration of 100 μmol.
Streptolysin O was given to preincubated suspensions to achieve a final concentration of 500 ng/ml. Measurements were performed after 2 hours. Releases of histamine and TNFα in the suspensions were measured. After saline preincubation, a significant release of histamine and TNFα was observed.
Cell plates were exposed to a single dose (250 mJ/cm2) of UVB using a lamp (Saalmann, Herford, Germany) emitting most of its energy within the UVB range (295 to 315 nm). Tryptase levels in the supernatants were determined after 30 minutes, and concentrations of TNFα after 60 minutes. After preincubation with saline, there was a marked increase of tryptase. Preincubation with native fatty acids led to a dose-dependent reduction of tryptase release, which was significant at the lower irradiation dose but not after exposure to a high irradiation dose. […] For all nitrated fatty acids that were used the results were mostly inside the same range. Relative differences can be represented as follows: […]

[3] = system: Human peripheral blood mononuclear cells (PBMCs); assay: Adhesion of serum proteins and monocyte activation induced by coated silicone; assay type: cell-based; details: dip-coated silicone, PBMCs 3 days; compared with native FA; further: key: 0: not superior to native FA (control); +: Superior to native FA; ++: superior to both; +++: outstanding effect
Procedure: In order to determine the effect of coating implant materials with nitro fatty acids to reduce adsorption of adhesion molecules and monocyte activation, sterile silicone sheets were out in small pieces and coated with respective nirocarboxylic acid and the corresponding native fatty acids by dip coating. Uncoated silicone pieces served as controls. For each fatty acid two sets of silicone pieces were bathed in freshly drawn human serum for 1 hour at 37° C., and another two sets were bathed in saline solutions. One set of both coated and uncoated pieces was analyzed immediately for adhesion proteins and the other set was placed in 96-well plates after rinsing the silicone pieces. Human peripheral blood mononuclear cells (PBMCs), isolated from three healthy subjects, were added to each well. Wells were incubated for 3 days under standard conditions. Culture supernatants were assayed for IL-1beta, IL-6, IL-8, and chemoattractant protein 1 (MCP-1) levels at the start and end of experiments.
Before analyzing the silicone pieces for protein adsorption, they were bathed in saline for 5 minutes. Thereafter, one side was rinsed with saline as performed for both sides in the set used for culturing. There was marked adsorption of fibrinogen and […] C5b-9 on the uncoated silicone. […] No protein was found on the surface of the nitro fatty acid-coated sample that was rinsed, thus, indicating the weak adherence of serum proteins.

[4] = system: Murine macrophage-like cells RAW 264.7 and murine L929 fibroblasts; assay: Monocyte/fibroblast co-culture on coated surgical suture material; assay type: cell-based; details: dip-coated suture material, 24 and 48 hours; compared with native FA; further: key: 0: not superior to native FA (control); +: Superior to native FA; ++: superior to both; +++: outstanding effect
Text: In order to determine immunoreactions to foreign material and its consequence on fibrogenesis, co-cultures of fibroblasts and monocytes were used. Commercially available suture materials (propylene, polyamide, and silk) were dip-coated with corresponding native and nitrated fatty acids. Untreated suture material served as control. Treated and untreated suture materials were out in small pieces and placed in a 96-well plate.
Murine macrophage-like cells RAW 264.7 and murine L929 fibroblasts were cultured to a population density of 5×10(5) each. Cell suspensions were merged achieving a cellularity of approximately 2.5×10(5) cell/ml of each cell population which were added to the wells. The suture material samples were fully covered by the suspension. Wells were continuously and gently shaken throughout the incubation period.
Supernatants were collected for assays after 24 and 48 hours and analyzed for profibrotic cytokines IL-13, IL-4, and IL-6, TGF-β1, collagen I.

[5] = system: female Sprague-Dawley rats; assay: Fibrogenesis in an in-vivo model of soft implant implantation; design: species or system rat; details: subcutaneous implants, 120 days, compared with native FA; further: key: 0: not superior to native FA (control); +: Superior to native FA; ++: superior to both; +++: outstanding effect
Procedure: Silicone bag-gel miniprostheses (POLYTECH Health & Aesthetics GmbH, Dieburg, Germany) having a diameter of 2 cm and a volume of approximately 2 ml were used. […] The experimentally used implant models had two small tags which allowed the implants to be suspended during the coating procedures.
Each implant was treated in the following manner: cleaning by sonication for 2 min each in the following sequence of solvents: acetone, toluene, acetone, ethanol, and water. Implants were exposed to Piranha solution for 60 min and rinsed with deionized water. They were then immersed in a 20% aqueous solution of ammonium fluoride for 45 min to obtain a hydrogen-passivated Si surface. The ammonium fluoride solution was sparged with nitrogen for 15 min to remove dissolved oxygen. Prepared implants were transferred to a glass chamber filled with an inert atmosphere where they were suspended so that no part of their surface came in contact with the container. The container was filled with a 1-hexadecene solution and heated at 150° C. at a pressure of 2 Torr for 120 min. Prepared implants were cleaned in the following sequence of solvents: acetone, ethanol, and water. Formation of self assembled monolayer was controlled by measuring surface hydrophobicity; the contact angle was about 105°. Dry implants suspended in the container were then bathed in an ethanolic solution of oleic acid or nitro-oleic acid at a temperature of 40° C. for 120 min. Thereafter, the solution was allowed to run out slowly through an outlet at the bottom of the container. The emptying container was filled with inert gas in which the samples were maintained for 24 hours. Then samples were bathed three times in an ethanolic solution, followed by a final rinsing with sterile water. After drying, the container with the prepared implant was sterilized using ethylene oxide and stored at 20° C.
For in vivo testing, 24 uncoated and 24 coated implants were investigated in 24 female Sprague-Dawley rats (190-230 g). In the anesthetized animals, bilateral dorsal pockets in the subcutaneum were created by blunt dissection through paired paravertebral incisions. Each animal received one coated implant and one control implant on opposite sides, alternating sides on successive animals. Animals were housed and fed according to institutional standards for 120 days. Animals were sacrificed with chloroform. The implants and the adhering tissue were extracted by en bloc resection. The implants were cannulated and the liquid silicone gel was replaced by paraffin. Thereafter, the complete tissue block was prepared by standard means of histology, and stained with H&E or Masson's trichrome.

| Molecule | Relative differences: effect on adhesion, propagation and growth of endothelial cells [1] | Relative differences: effect on toxin response of mast cells [2] | Relative effect on serum protein adhesion and monocyte activation [3] | Relative effect on profibrotic cytokines and collagen I on suture material [4] | Relative effect of surface coating on fibrogenesis around silicone implants [5] |
| --- | --- | --- | --- | --- | --- |
| 5-nitro-eicosatrienoic acid [compound 4] | + | + | + | + |  |
| 9,10-nitro-cis-oleic acid [compound 10] | ++ | +++ | ++ | +++ | ++ |
| 9,10-nitro-trans-oleic acid [compound 15] | + | ++ | + | + | + |
| CCCCCCCC/C=C(/CCCCCCCC(=O)O)[N+](=O)[O-] [compound 1, 9-nitro cis-oleic acid] | ++ | +++ | +++ | ++ | ++ |
| CCCCC/C=C\C/C(=C\CCCCCCCC(=O)O)[N+](=O)[O-] [compound 2, 10-nitro-cis-linoleic acid] | +++ | ++ | ++ | +++ | ++ |
| CCCCCCCC/C(=C/CCCCCCCC(=O)O)[N+](=O)[O-] [compound 3, 10-nitro-cis-oleic acid] | ++ | +++ | ++ | ++ | ++ |
| CCCCC/C=C(/C/C=C\C/C=C\C/C=C\C/C=C\CCC(=O)O)[N+](=O)[O-] [compound 5, 16-nitro-all-cis-4,7,10,13,16-docosapentaenoic acid] | ++ | + | + | + |  |
| CC/C=C\C/C=C\C/C(=C/C/C=C\C/C=C\CCCCCC(=O)O)[N+](=O)[O-] [compound 7, 14-nitro-all-cis-7,10,13,16,19-docosapentaenoic acid] | + | ++ | 0 | + |  |
| CCCCCCCC/C(=C\CCCCCCCC(=O)O)[N+](=O)[O-] [compound 12, 10-nitro-trans-oleic acid] | + | ++ | 0 | + |  |
| CCCCCC/C=C(/CCCCCCCC(=O)O)[N+](=O)[O-] [compound 13] | ++ |  | + | + | + |
| CCCCCC=CCC=C(CC=CCC=CCCCC(=O)O)[N+](=O)[O-] [compound 14, 11-nitro-5,8,11,14-eicosatrienoic acid] | + |  | + | + | + |
| CCCCCCCC/C=C(/CCCCCCCCCCCC(=O)O)[N+](=O)[O-] [compound 17, 13-nitro-cis-13-docosenoic acid] | 0 | + | + | + |  |
| CCCCC/C=C(/C/C=C\C/C=C(/C/C=C\CCCC(=O)O)[N+](=O)[O-])[N+](=O)[O-] [compound 18, 8,14-nitro-cis-5,8,11,14-eicosatetraenoic acid] | + | 0 | ++ | 0 |  |
| CCC=CCC=C(CC=CCC=CCC=CCC=C(CCC(=O)O)[N+](=O)[O-])[N+](=O)[O-] [compound 19, 4,16-nitro-docosahexaenoic acid] | + | 0 | + | + |  |
| CCCCCCCCCCC/C=C(/CCCCC(=O)O)[N+](=O)[O-] [compound 21, 6-nitro-cis-6-octadecenoic acid] | 0 |  | 0 | + | + |
